Measured values taken from patent US20050032873A1, “3-Amino chroman and 2-amino tetralin derivatives” (Wyeth, priority 2003, published 2005).
Counter-ions that a name gives are not always drawn.

Columns and labels:
5-HT1A receptor [1] = target: T1, 5-HT1A receptor (Homo sapiens, UniProt P08908); assay: 5-HT1A receptor affinity: displacement of [3H] 8-OH-DPAT; format: binding; set-up: expressed in transfected cells; details: displacement of [3H] 8-OH-DPAT; CHO cells stably transfected with human 5-HT1A receptors; read-out: 5-HT1A Receptor Affinity Ki
T1 sequence (P08908 1-422): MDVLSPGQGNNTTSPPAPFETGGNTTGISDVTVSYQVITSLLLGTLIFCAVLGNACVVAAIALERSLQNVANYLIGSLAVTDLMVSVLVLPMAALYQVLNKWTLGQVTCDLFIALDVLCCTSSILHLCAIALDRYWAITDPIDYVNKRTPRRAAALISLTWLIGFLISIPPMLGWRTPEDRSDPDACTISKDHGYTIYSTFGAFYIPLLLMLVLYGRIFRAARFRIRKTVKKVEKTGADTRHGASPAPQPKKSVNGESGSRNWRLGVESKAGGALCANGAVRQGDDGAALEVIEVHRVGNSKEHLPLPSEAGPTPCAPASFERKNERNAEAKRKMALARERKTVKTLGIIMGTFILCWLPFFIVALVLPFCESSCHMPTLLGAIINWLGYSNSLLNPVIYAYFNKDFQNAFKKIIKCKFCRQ

serotonin transporter = target: T2, serotonin transporter (Rattus norvegicus, UniProt P31652); assay: 5-HT transporter affinity: displacement of 3H-paroxetine from male rat cortical membranes; format: binding; details: displacement of 3H-paroxetine; male rat cortical membranes; read-out: 5-HT Transporter Affinity Ki
T2 construct: displace ^3H-paroxetine from male rat cortical membranes; from tissue; host or cells: male rat cortical membranes

5-HT1A receptor [2] = target: T1, 5-HT1A receptor; assay: cAMP accumulation assay, 5-HT1A function; format: cell-based
Description: (§1) The agonist or antagonist activity at 5-HT1A receptors was established by using two different assays. […] Agonists produce an increase in binding whereas antagonists produce no increase but rather reverse the effects of the standard agonist 8-OH-DPAT. The test compound's maximum stimulatory effect is represented as the Emax, while its potency is defined by the EC50. The test compound's maximum inhibitory effect is represented as the Imax, while its potency is defined by the IC50. The second assay measured cAMP accumulation upon binding of the ligand to the 5-HT1A receptor. […] The test compound's maximum stimulatory or inhibitory effect is represented as the Emax while its potency is defined by either IC50 for an antagonist or EC50 for an agonist. [^3H]-8-OH-DPAT was used to determine maximum agonist or antagonist response in both functional assays.

[3] = target: T3, cloned human 5-HT1A receptors (Homo sapiens, UniProt P08908); assay: 35S-GTPγS binding assay, 5-HT1A function; format: biochemical
T3 construct: expressed in transfected cells
T3 sequence (P08908 1-422): T1 sequence (P08908 1-422)
Description: as §1

T2 sequence (P31652 whole entry): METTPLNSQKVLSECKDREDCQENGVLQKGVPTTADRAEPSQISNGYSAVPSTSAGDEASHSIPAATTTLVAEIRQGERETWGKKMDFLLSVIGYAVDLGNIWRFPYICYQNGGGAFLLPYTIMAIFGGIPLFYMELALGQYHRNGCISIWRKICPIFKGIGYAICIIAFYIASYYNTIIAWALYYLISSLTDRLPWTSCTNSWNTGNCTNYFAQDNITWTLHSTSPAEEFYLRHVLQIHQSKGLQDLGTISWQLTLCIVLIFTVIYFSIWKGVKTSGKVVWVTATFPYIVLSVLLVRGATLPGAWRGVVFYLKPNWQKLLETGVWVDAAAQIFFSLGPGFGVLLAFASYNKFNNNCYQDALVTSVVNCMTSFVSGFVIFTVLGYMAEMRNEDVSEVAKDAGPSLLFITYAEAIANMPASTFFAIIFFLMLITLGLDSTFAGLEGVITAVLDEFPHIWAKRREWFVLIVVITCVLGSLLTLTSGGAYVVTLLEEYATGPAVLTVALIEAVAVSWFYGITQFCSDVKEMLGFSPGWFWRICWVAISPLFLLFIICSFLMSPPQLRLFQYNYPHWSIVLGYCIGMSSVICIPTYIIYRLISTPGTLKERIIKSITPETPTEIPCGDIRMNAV

Molecule | melting point | further results
NC(=O)c1ccc(F)c2c1CC(NCCCc1c[nH]c3ccc(F)cc13)CO2 (stereo not drawn) (as salt: hydrochloride) [Compound 1, 8-fluoro-3-{[3-(5-fluoro-1H-indol-3-yl)propyl]amino}chromane-5-carboxamide] | 122 °C (dec.) | 
CCCN(CCCc1c[nH]c2ccc(F)cc12)C1COc2c(F)ccc(C(N)=O)c2C1 (stereo not drawn) (as salt: hydrochloride) [Compound 2, 8-fluoro-3-{[3-(5-fluoro-1H-indol-3-yl)propyl](propyl)amino}chromane-5-carboxamide] | 125 °C (dec.) | 
NC(=O)c1ccc(F)c2c1CC(N(CCCc1c[nH]c3ccc(F)cc13)CC1CC1)CO2 (stereo not drawn) (as salt: hydrochloride) [Compound 5, 3-{(cyclopropylmethyl)[3-(5-fluoro-1H-indol-3-yl)propyl]amino}-8-fluorochromane-5-carboxamide] | 121 °C (dec.) | 
CC(C1CC1)N(CCCc1c[nH]c2ccc(F)cc12)C1COc2c(F)ccc(C(N)=O)c2C1 (stereo not drawn) (as salt: hydrochloride) [Compound 6, 3-{(1-cyclopropylethyl)[3-(5-fluoro-1H-indol-3-yl)propyl]amino}-8-fluorochromane-5-carboxamide] | 124 °C (dec.) | 
NC(=O)c1ccc(F)c2c1CC(N(CCC(=O)c1c[nH]c3ccc(F)cc13)C1CCC1)CO2 (stereo not drawn) (as salt: hydrochloride) [Compound 8, 3-{cyclobutyl[3-(5-fluoro-1H-indol-3-yl)-3-oxopropyl]amino}-8-fluorochromane-5-carboxamide] | 139 °C (dec.) | 
COC(=O)c1ccc(F)c2c1CC(NCCCc1c[nH]c3ccc(F)cc13)CO2 (stereo not drawn) (as salt: hydrochloride) [Compound 10, Methyl 8-fluoro-3-{[3-(5-fluoro-1H-indol-3-yl)propyl]amino}chromane-5-carboxylate] | 219 °C (dec.) | 
COC(=O)c1ccc(F)c2c1CC(N(CCCc1c[nH]c3ccc(F)cc13)C1CCC1)CO2 (stereo not drawn) (as salt: hydrochloride) [Compound 11, Methyl 3-{cyclobutyl[3-(5-fluoro-1H-indol-3-yl)propyl]amino}-8-fluorochromane-5-carboxylate] | 110 °C (dec.) | 
CCCN(CCC(O)c1csc2ccc(F)cc12)C1COc2c(F)ccc(C(N)=O)c2C1 (stereo not drawn) (as salt: hydrochloride) [Compound 17, 8-fluoro-3-[[3-(5-fluoro-1-benzothien-3-yl)-3-hydroxypropyl](propyl)amino]chromane-5-carboxamide] | 117 °C (dec.) | 
CCCN(CCCc1csc2ccc(F)cc12)C1COc2cccc(OC)c2C1 (stereo not drawn) (as salt: hydrochloride) [Compound 19, N-[3-(5-fluoro-1-benzothien-3-yl)propyl]-5-methoxy-N-propylchroman-3-amine] | 78 °C (dec.) | 
CCCN(CCCc1coc2ccccc12)C1COc2c(F)ccc(C(N)=O)c2C1 (stereo not drawn) (as salt: hydrochloride) [Compound 20, 3-[[3-(1-benzofuran-3-yl)propyl](propyl)amino]-8-fluorochromane-5-carboxamide] | 114 to 118 °C (dec.) | 
CCN(CCCCc1coc2ccccc12)C1COc2cccc(OC)c2C1 (stereo not drawn) (as salt: hydrochloride) [Compound 22, N-[4-(1-benzofuran-3-yl)butyl]-N-ethyl-N-(5-methoxy-3,4-dihydro-2H-chromen-3-yl)amine] | 152 to 154 °C | 
CCCN(CCCc1c[nH]c2ccc(F)cc12)C1COc2cccc(OC)c2C1 (stereo not drawn) (as salt: hydrochloride) [Compound 23, [3-(5-fluoro-1H-indol-3-yl)propyl]-N-(5-methoxy-chroman-3-yl)propylamine] | 117 to 120 °C | 
CCN(CCCc1c[nH]c2ccc(F)cc12)C1COc2cccc(OC)c2C1 (stereo not drawn) (as salt: hydrochloride) [Compound 31, N-ethyl-N-[3-(5-fluoro-1H-indol-3-yl)propyl]-5-methoxychroman-3-amine] | 91.2 °C (dec.) | 
COc1cccc2c1CC(N(CCCc1c[nH]c3ccc(F)cc13)C1CCC1)CO2 (stereo not drawn) (as salt: hydrochloride) [Compound 34, N-cyclobutyl-N-[3-(5-fluoro-1H-indol-3-yl)propyl]-5-methoxychroman-3-amine] | 70.5 °C (dec.) | 
COc1cccc2c1C[C@@H](N(CCCc1c[nH]c3ccc(F)cc13)C1CCC1)CO2 (as salt: hydrochloride) [Compound 35, (3R)-N-cyclobutyl-N-[3-(5-fluoro-1H-indol-3-yl)propyl]-5-methoxy-3,4-dihydro-2H-chromen-3-amine] | 115 °C (dec.) | 
COc1cccc2c1CC(N(CCCCc1c[nH]c3ccc(F)cc13)C1CCC1)CO2 (stereo not drawn) (as salt: hydrochloride) [Compound 36, N-cyclobutyl-N-[4-(5-fluoro-1H-indol-3-yl)butyl]-N-(5-methoxy-3,4-dihydro-2H-chromen-3-yl)amine] | 89 °C (dec.) | 
COc1cccc2c1CC(N(CCCc1c[nH]c3ccc(F)cc13)CC1CC1)CO2 (stereo not drawn) (as salt: hydrochloride) [Compound 37, N-(cyclopropylmethyl)-N-[3-(5-fluoro-1H-indol-3-yl)propyl]-N-(5-methoxy-3,4-dihydro-2H-chromen-3-yl)amine] | 114 °C (dec.) | 
COc1cccc2c1CC(N(CCCc1cn(C)c3ccc(F)cc13)CC1CC1)CO2 (stereo not drawn) (as salt: hydrochloride) [Compound 38, N-(cyclopropylmethyl)-N-[3-(5-fluoro-1-methyl-1H-indol-3-yl)propyl]-N-(5-methoxy-3,4-dihydro-2H-chromen-3-yl)amine] | 86 °C (dec.) | 
COc1cccc2c1CC(N(CCCc1c[nH]c3ccc(F)cc13)C1CCCC1)CO2 (stereo not drawn) (as salt: hydrochloride) [Compound 39, N-cyclopentyl-N-[3-(5-fluoro-1H-indol-3-yl)propyl]-N-(5-methoxy-3,4-dihydro-2H-chromen-3-yl)amine] | 112 °C (dec.) | 
COc1cccc2c1CC(N(CCCc1c[nH]c3ccc(F)cc13)C(C)C)CO2 (stereo not drawn) (as salt: hydrochloride) [Compound 40, N-[3-(5-fluoro-1H-indol-3-yl)propyl]-N-isopropyl-N-(5-methoxy-3,4-dihydro-2H-chromen-3-yl)amine] | 105 °C (dec.) | 
COc1cccc2c1CC(N(CCCc1c[nH]c3ccc(F)cc13)C1CC1)CO2 (stereo not drawn) (as salt: hydrochloride) [Compound 41, N-cyclopropyl-N-[3-(5-fluoro-1H-indol-3-yl)propyl]-N-(5-methoxy-3,4-dihydro-2H-chromen-3-yl)amine] | 115 °C (dec.) | 
COc1cccc2c1CC(N(CCCc1c[nH]c3ccc(F)cc13)CC1CCC1)CO2 (stereo not drawn) (as salt: hydrochloride) [Compound 42, N-(cyclobutylmethyl)-N-[3-(5-fluoro-1H-indol-3-yl)propyl]-N-(5-methoxy-3,4-dihydro-2H-chromen-3-yl)amine] | 115 °C (dec.) | 
COc1cccc2c1CC(N(CCCc1c[nH]c3ccccc13)CC1CC1)CO2 (stereo not drawn) (as salt: hydrochloride) [Compound 43, N-(cyclopropylmethyl)-N-[3-(1H-indol-3-yl)propyl]-N-(5-methoxy-3,4-dihydro-2H-chromen-3-yl)amine] | 107 to 110 °C | 
COc1cccc2c1CC(N(CCCc1c[nH]c3ccccc13)C1CCC1)CO2 (stereo not drawn) (as salt: hydrochloride) [Compound 44, N-cyclobutyl-N-[3-(1H-indol-3-yl)propyl]-N-(5-methoxy-3,4-dihydro-2H-chromen-3-yl)amine] | 113 to 117 °C | 
COc1cccc2c1CC(N(CCCc1c[nH]c3ccc(C#N)cc13)CC1CC1)CO2 (stereo not drawn) (as salt: hydrochloride) [Compound 45, 3-{3-[(cyclopropylmethyl)(5-methoxy-3,4-dihydro-2H-chromen-3-yl)amino]propyl}-1H-indole-5-carbonitrile] | 123 to 127 °C (dec.) | 
COc1cccc2c1CC(N(CCCc1c[nH]c3ccc(C#N)cc13)C1CCC1)CO2 (stereo not drawn) (as salt: hydrochloride) [Compound 46, 3-{3-[cyclobutyl(5-methoxy-3,4-dihydro-2H-chromen-3-yl)amino]propyl}-1H-indole-5-carbonitrile] | 133 to 137 °C | 
CCCN(CCCc1c[nH]c2ccc(F)cc12)[C@H]1CCc2cccc(OC)c2C1 (as salt: hydrochloride) [Compound 47a, (−)-N-[3-(5-fluoro-1H-indol-3-yl)propyl]-8-methoxy-N-propyl-1,2,3,4-tetrahydronaphthalen-2-amine] | 107 °C (dec.) | 
[3-(5-fluoro-1H-indol-3-yl)-propyl]-((3S)-5-methoxychroman-3-yl)propylamine [Compound 25] |  | Ki (5-HT1A receptor [1]): 24.3 nM; Ki (serotonin transporter): 16.5 nM; EC50 (5-HT1A receptor [2]; cells marked EC50 (agonist)): 1.06 nM; 5-HT1A Function cAMP (Emax) (5-HT1A receptor [2]; in brackets after EC50 or IC50): 93.5%; EC50 ([3]; agonist potency): 155 nM; 5-HT1A Function GTPγS (Emax) ([3]; maximum stimulatory effect, in brackets after EC50): 88%
